Test results as given in PubChem BioAssay (NCI).
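The compound was tested at five concentrations on cells cultured in 96-well plates, with a 48-hour exposure period. The concentration for full growth arrest is given as TGI.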

Columns and labels:
Test in all cases: DTP human tumour cell line panel, 48 h
A549 NSCLC = tested on: A549 NSCLC
EKVX NSCLC = tested on: EKVX NSCLC
HOP-92 NSCLC = tested on: HOP-92 NSCLC
HS 578T breast = tested on: HS 578T breast
K-562 leukemia = tested on: K-562 leukemia
LOX IMVI melanoma = tested on: LOX IMVI melanoma
M14 melanoma = tested on: M14 melanoma
MCF7 breast = tested on: MCF7 breast
NCI-H226 lung = tested on: NCI-H226 lung
NCI-H522 lung = tested on: NCI-H522 lung
OVCAR-5 ovarian = tested on: OVCAR-5 ovarian
RPMI-8226 leukemia = tested on: RPMI-8226 leukemia
SK-OV-3 ovarian = tested on: SK-OV-3 ovarian
SNB-19 CNS = tested on: SNB-19 CNS
SNB-75 CNS = tested on: SNB-75 CNS
SR leukemia = tested on: SR leukemia
U251 CNS = tested on: U251 CNS
UACC-257 melanoma = tested on: UACC-257 melanoma
UO-31 renal = tested on: UO-31 renal
KM20L2 colon = tested on: KM20L2 colon

| SMILES | TGI (A549 NSCLC) [µM] | TGI (EKVX NSCLC) [µM] | TGI (HOP-92 NSCLC) [µM] | TGI (HS 578T breast) [µM] | TGI (K-562 leukemia) [µM] | TGI (LOX IMVI melanoma) [µM] | TGI (M14 melanoma) [µM] | TGI (MCF7 breast) [µM] | TGI (NCI-H226 lung) [µM] | TGI (NCI-H522 lung) [µM] | TGI (OVCAR-5 ovarian) [µM] | TGI (RPMI-8226 leukemia) [µM] | TGI (SK-OV-3 ovarian) [µM] | TGI (SNB-19 CNS) [µM] | TGI (SNB-75 CNS) [µM] | TGI (SR leukemia) [µM] | TGI (U251 CNS) [µM] | TGI (UACC-257 melanoma) [µM] | TGI (UO-31 renal) [µM] | TGI (KM20L2 colon) [µM] |
| --- | --- | --- | --- | --- | --- | --- | --- | --- | --- | --- | --- | --- | --- | --- | --- | --- | --- | --- | --- | --- |
| CC(C)(C)c1cc(C(P(=O)(c2ccccc2)c2ccccc2)P(=O)(c2ccccc2)c2ccccc2)cc(C(C)(C)C)c1O | > 8.98 | > 10 | 5.65 | 6.27 | 9.93 | 4.04 | 3.84 | > 8.8 | 9.13 | 5.26 | > 6.72 | > 7.73 | > 10 | > 10 | 7.39 | > 8.37 | 6.68 | 4.18 | 6.99 |  |
| O=C1N=c2ccccc2=C1c1c(O)[nH]c2ccccc12 | > 100 | 71.6 | 81.1 | > 100 | > 100 | 49.9 | > 100 | 25.3 | > 100 | 25.6 | 12.4 | > 100 | > 100 | 67.4 | 35 | 17.8 | 24.1 | > 100 | 30.5 |  |
| O=c1[nH]c(-c2ccc3ccccc3c2)nc2ccccc12 | > 100 | > 100 | > 100 | > 100 | > 100 | > 100 | > 100 | > 100 | > 100 | > 100 | > 100 | > 100 | > 100 | 51.4 | 28.6 | > 100 | > 100 | > 100 | 60.9 |  |
| CCN(CC)c1c(N(CC)CC)c(=O)c1=O | 43.7 | 28.6 | 11.4 | 59.9 | > 100 | 25.8 | 36.9 | 29.5 | 30.9 | 4.86 | 37.2 | 4.91 | > 100 | > 89.6 | 62.6 | > 100 | 55.6 | 20.5 | 12 |  |
| C=C1CC(c2ccc(OCCCN3C(=O)c4ccccc4C3=O)c(OC)c2)OC1=O (stereo not given) | 27 | 30.6 | 3.51 | 32.4 | 2.68 | 4.53 | 17.3 | 0.48 | 23.4 | 1.54 | 31.9 | 6.69 | 29.4 | 28 | 8.06 | 2.72 | 23.5 | 12.8 | 7.8 |  |
| C=C(C)C(CC=C(C)C)CC12CC(CC=C(C)C)C(C)(C)C(CC=C(C)C)(C(=O)C(Cc3ccc(O)c(O)c3)=C1O)C2=O (stereo not given) | > 100 | > 100 | > 100 | > 100 | > 100 | > 100 | > 100 | > 100 | > 100 | > 100 | > 100 | > 100 | > 100 | > 100 | > 100 | > 100 | > 100 | > 100 | > 100 |  |
| Cc1cc(C)c(S(=O)(=O)N2CCCN(S(=O)(=O)c3c(C)cc(C)cc3C)OCCCON(S(=O)(=O)c3c(C)cc(C)cc3C)CCCN(S(=O)(=O)c3c(C)cc(C)cc3C)OCCCO2)c(C)c1 | > 100 | > 100 | > 100 | > 100 | > 100 | > 100 | > 100 | > 100 | > 100 | > 100 | > 100 | > 100 | > 100 | > 100 | > 100 | > 100 | > 100 | > 100 | > 100 |  |
| C[C@]12CC[C@H](O)CC1=CC[C@@H]1[C@@H]2CC[C@]2(C)C(=O)[C@@H](N3CCOCC3)C[C@@H]12 | > 100 | > 100 | > 100 | > 100 | > 100 | > 100 | > 100 | > 100 | > 100 | > 100 | > 100 | > 100 | > 100 | > 100 | 99.2 | > 100 | > 100 | > 100 | > 100 |  |
| COc1ccc(CC2c3cc(Oc4cc(CC5c6cc(OC)c(OC)cc6CCN5C)ccc4O)c(OC)cc3CCN2C)cc1 (stereo not given) | 13.4 | 15.9 | 14.6 | 19.3 | 5.28 | 10.7 | 12.1 | 12.2 | 18.6 | 14.1 | 16.6 | 10.1 | 16.5 | 12.5 | 15.3 | 4.6 | 11.9 | 15 | 11.2 |  |
| Cc1nc2ccccc2c(=O)n1NC(=O)c1ccc(CS)cc1 | 64.5 | 66.2 | 40.8 | 95.4 | 68.1 | 0.401 | 34.2 | 26.2 | 14.2 | 27 | 83.9 | > 100 | 78 | > 100 | > 100 | 43.1 | 23.3 | > 100 | 29.9 |  |
| Oc1ccc2ccccc2c1/C=C/c1ccc2c(Br)cc(Br)c(O)c2n1 | 20.5 | 15.3 | 35.5 | 49.4 | 22.5 | 23 | 26.5 | 14.5 | 20.3 | 14.3 | 21.7 | 41.4 | 28.9 | 25.1 | 30.8 | > 40.4 | 21.6 | 22.9 | 17.1 |  |
| CNC(=S)N(C)C(=S)Nn1c(=O)c(C)nn(C)c1=S | > 100 | > 100 | > 100 |  | > 100 | > 100 | > 100 |  | > 100 | > 100 | > 100 | > 100 |  | > 100 | > 100 | > 100 | > 100 | > 100 |  | > 100 |
| CC(C)(Cc1ccccc1)NC1=NCCO1 | > 100 | > 100 | > 100 | > 100 | > 100 | > 100 | > 100 | > 100 | > 100 | > 100 | > 100 | > 100 | > 100 | > 100 | > 100 | > 100 | > 100 | > 100 | > 100 |  |
| CS(=O)(=O)N/N=C/CN1C(=O)c2ccccc2C1=O | > 100 | > 100 |  |  | > 100 |  | > 100 |  | > 100 | > 100 | > 100 | > 100 | > 100 | > 100 | > 100 | > 100 | > 100 | > 100 | > 100 | > 100 |
| C[C@@H]1C[C@H]2[C@@H]3CCC4=CC(=O)C=C[C@]4(C)[C@@]3(Cl)[C@@H](Cl)C[C@]2(C)[C@@]1(O)C(=O)COP(=O)(O)O | > 100 | > 100 | > 100 | > 100 | > 100 | > 100 | > 100 | > 100 | > 100 | > 100 | > 100 | > 100 | > 100 | > 100 | > 100 | > 100 | > 100 | > 100 | > 100 |  |
| NS(=O)(=O)c1nn2c(Br)c(-c3ccccc3)nc2s1 | 21.6 | 31.9 | 22.4 | 30.7 | 21.2 | 4.49 | 13.8 | 16 | 4.6 | 3.55 | 24.3 | 15.5 | 28.4 | 22.8 | 19.5 | > 33.8 | 15.6 | 15.5 | 15.5 |  |
| CC1(CCCO)CCCCCC(C)(CCCO)C1=O (stereo not given) | > 100 | > 100 | > 100 | > 100 | > 100 | > 100 | > 100 | > 100 | > 100 | > 100 | > 100 | > 100 | > 100 | > 100 | > 100 | > 100 | > 100 | > 100 | > 100 |  |
| O=[N+]([O-])c1cc2oc(COc3ccccc3)nc2cc1Cl | > 100 | 73.6 | > 100 | > 100 | > 100 | 35 | 43.5 | > 100 | 51.3 | 46.3 | > 100 | > 100 | 59.9 | > 100 | 58 | > 100 | 52.5 | 63.4 | 66 |  |
| CCC(=O)NC(Nc1cccc(F)c1C)(C(F)(F)F)C(F)(F)F | > 100 | > 100 | > 100 | > 100 | > 100 | > 100 | > 100 | > 100 | > 100 | > 100 | > 100 | > 100 | > 100 | > 100 | > 100 | > 100 | > 100 | > 100 | > 100 |  |
| CC(=O)Nc1ccc(C(=O)NN2C(=O)C(Cl)C2c2ccccc2)cc1 (stereo not given) | > 100 | > 100 | > 100 |  | > 100 | > 100 | > 100 |  | > 100 | > 100 | > 100 |  | > 100 | > 100 | > 100 |  | > 100 | > 100 | > 100 | > 100 |
| O=[N+]([O-])c1nccn1CC(O)c1ccc(F)cc1 (stereo not given) | > 100 | > 100 | > 100 |  | > 100 | > 100 | > 100 |  | > 100 | > 100 | > 100 | > 100 | > 100 | > 100 | > 100 |  | > 100 | > 100 | > 100 | > 100 |
| O=[N+]([O-])c1ccc(Cl)c(C=NC23CC4CC(CC(C4)C2)C3)c1 | > 10 | > 10 | > 10 | > 10 | > 10 | > 10 | > 10 | > 10 | > 10 | > 10 | > 10 | > 10 | > 10 | > 10 | > 10 | > 10 | > 10 | > 10 | > 10 |  |
| O=S(=O)(c1ccccc1)n1c2cc3cccnc3nc2c2cccnc21 | > 100 | > 100 | > 100 | > 100 | 55.3 | > 100 | > 100 | > 100 | > 100 | > 100 | > 100 | 56.6 | > 100 | > 100 | > 100 | 30.4 | > 100 | > 100 | > 100 |  |
| CNn1c(-c2ccccc2)n[nH]c1=O | > 100 | > 100 | > 100 | > 100 | > 100 | > 100 | > 100 | > 100 | > 100 | > 100 | > 100 | > 100 | > 100 | > 100 | > 100 | > 100 | > 100 | > 100 | > 100 |  |
